Usually inhibition stands for the change of the read-out against control, counted positive when it falls. By IC50 is commonly meant the midpoint of a concentration-inhibition curve. High values mean a need for much substance, low ones inhibition by little substance.

Results on 15 compounds are retold here after ChEMBL document CHEMBL2163196, “Discovery of small molecules that inhibit melanogenesis via regulation of tyrosinase expression” (Bioorg Med Chem Lett, 2012).

The subject of data set [1] is B16-F10. Description: Inhibition of alpha-MSH-induced melanogenesis in mouse B16F10 cells at 10 uM after 3 days by spectrophotometric analysis relative to control. To be noted: B16-F10, 72 h. Format: functional.
Data set [2] can be described thus: Inhibition of tyrosinase.
The subject of data set [3] is B16-F10. Description: Inhibition of alpha-MSH-induced melanogenesis in mouse B16F10 cells at 1 uM after 3 days by spectrophotometric analysis relative to control. The following applies: B16-F10, 72 h. The class given is functional.
The subject of data set [4] is B16-F10. Description: Inhibition of alpha-MSH-induced melanogenesis in mouse B16F10 cells after 3 days by spectrophotometric analysis. Format: functional, cell-based. To be noted: for IC50: B16-F10, 72 h.
For data set [5], the system named is B16-F10. Put plainly: Cytotoxicity against mouse alpha-MSH-induced B16F10 cells at 0.31 to 20 uM after 3 days by trypan blue staining. The class given is cell-based. To be noted: b16-f10, 72 h.
Data set [6] concerns B16-F10. Description: Ratio of kojic acid IC50 to compound IC50 for melanogenesis in mouse B16F10 cells. Format: functional.
The test system of data set [7] is B16-F10. Description: Downregulation of tyrosinase in mouse B16F10 cells assessed as tyrosinase protein expression level at 5 uM after 48 hrs by Western blot analysis relative to actin (reference value: 1.1). The class given is functional. On the technique in general: In western blotting, separated proteins are transferred to a membrane and probed.
For data set [8], the system named is B16-F10. Put plainly: Downregulation of tyrosinase in mouse B16F10 cells assessed as tyrosinase protein expression level at 5 uM after 24 hrs by Western blot analysis relative to actin (reference value: 1.6). The class given is functional.

Calls of active or inactive are those of the source. The calls are words filed in the database; no cut-off is given here.

For the compound `O=C(c1noc2c1CCCCC2)N1CCN(c2ccc(F)cc2)CC1`, the inhibition at 10 µM in data set [1] was less than 5%. Besides, the inhibition result in data set [2] is “inactive”.
In data set [1], `O=C(c1noc2c1CCCCC2)N1CCN(c2ncccn2)CC1` returned an inhibition at 10 µM of 8%. For the same compound, the inhibition result in data set [2] is “inactive”. Besides, at 1 µM the inhibition in data set [3] was 11%.
As to `O=c1cc(CO)occ1O` [KOJIC ACID], half-maximal inhibition in data set [4] (IC50) required 84.5 µM.
In data set [1], `O=C(c1noc2c1CCCCC2)N1CCN(c2ccc(Cl)cc2)CC1` had an inhibition at 10 µM of 7%. Also, the inhibition result in data set [2] was “inactive”.
For `Cc1ccc(N2CCN(C(=O)c3noc4c3CCCCC4)CC2)cc1`, in that order: less than 5% and “inactive”.
In the case of `COc1ccc(CN2CCN(C(=O)c3noc4c3CCCCC4)CC2)cc1`, in data set [1], the inhibition at 10 µM is less than 5%. For the same compound, the inhibition result in data set [2] was “inactive”. Moreover, in data set [3], the inhibition at 1 µM is less than 5%.
For the compound `COc1ccc(N2CCCN(C(=O)c3noc4c3CCCCC4)CC2)cc1`, the inhibition at 10 µM in data set [1] amounted to 30%. Moreover, in data set [2], the inhibition entry was “inactive”.
As for `COc1ccc(N2CCN(C(=O)c3noc4c3CCCCC4)CC2)cc1`, the Activity entry in data set [5] is on record as “Non-toxic”. The compound also had an inhibition at 10 µM in data set [1] of 92%. In data set [6], the “Ratio IC50” value stood at 126. Further, the inhibition entry in data set [2] was “inactive”. Also, the inhibition at 1 µM in data set [3] turned out to be 42%. In addition, in data set [4], the inhibition result was “Dose-dependent effect” and the IC50 worked out at 0.67 µM.
Consider `CCOc1ccc(N2CCN(C(=O)c3noc4c3CCCCC4)CC2)cc1`, for which, in data set [5], the Activity entry is “Non-toxic”. The compound further showed an inhibition at 10 µM in data set [1] of 90%. In addition, the “fold change (FC)” value in data set [7] was 0.7. The “Ratio IC50” value in data set [6] is 85. In addition, the inhibition result in data set [2] was “inactive”. The “fold change (FC)” value in data set [8] was 0.9. The inhibition at 1 µM in data set [3] is 47%. Further, in data set [4], the inhibition entry is “Dose-dependent effect” and the midpoint of inhibition, the IC50, lay at 0.99 µM.
For the compound `CCCc1ccc(N2CCN(C(=O)c3noc4c3CCCCC4)CC2)cc1`, in data set [1], the inhibition at 10 µM is 56%. Moreover, the inhibition result in data set [2] was “inactive”. Besides, the inhibition at 1 µM in data set [3] came out at 21%.
Turning to `O=C(c1noc2c1CCCCC2)N1CCN(c2ccc(O)cc2)CC1`, in data set [5], the Activity result is listed as “Non-toxic”. Further, the inhibition at 10 µM in data set [1] is 89%. Besides, in data set [6], the “Ratio IC50” value is 85. Moreover, the inhibition result in data set [2] is “inactive”. In data set [3], the inhibition at 1 µM came to 47%. In data set [4], the inhibition entry is “Dose-dependent effect” and the IC50 was 1.01 µM.
`O=C(c1noc2c1CCCCC2)N1CCN(c2ccc3c(c2)OCCO3)CC1` came in with an inhibition at 10 µM in data set [1] of less than 5%. In addition, in data set [2], the inhibition result was “inactive”.
In the case of `COc1cccc(N2CCN(C(=O)c3noc4c3CCCCC4)CC2)c1`, the inhibition at 10 µM in data set [1] is less than 5%. In addition, in data set [2], the inhibition result was “inactive”.
In data set [1], `CCCc1ccc(N2CCCN(C(=O)c3noc4c3CCCCC4)CC2)cc1` showed an inhibition at 10 µM of 95%. The inhibition result in data set [2] was “inactive”. For the same compound, 1 µM produced 15% inhibition in data set [3].
As to `CCCOc1ccc(N2CCN(C(=O)c3noc4c3CCCCC4)CC2)cc1`, 10 µM produced 38% inhibition in data set [1]. Also, the inhibition result in data set [2] was “inactive”. For the same compound, the inhibition at 1 µM in data set [3] amounted to 34%.
